Reference: patent US20260274814A1, “THIENYL COMPOUNDS FOR THE TREATMENT OF A CENTRAL NERVOUS SYSTEM DISEASE OR DISORDER” (Coreterra Therapeutics, Inc., priority 2023, published 2026)
Counter-ions that a name gives are not always drawn.

Tested on: mice
Assay: Neuropharmacological Assay (SmartCube): automated behavioral signature of compound-treated mice compared with a database of reference drug classes
Format: in vivo
Settings: for minimal effective dose: Mus musculus, ip, read-out: MED; for minimal effective dose / MED: minimal effective dose: dose having 45% or more total activity in SmartCube, i.p., if only one dose tested, that dose is shown; for AD / AG / AN / AP / AX / CE / HL / MS / PS / SH / UK: SmartCube class probability, 3.0 mg/kg i.p., 15 min before test
In short: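 i.p. dosing 15 min pre-test (NMP/PEG/propylene glycol vehicle); 3 doses, 3.0 mg/kg reported. Output = class-match probability per behavioural effect. Potency runs 0.3, 1, 3, 10 mpk (range adjusted as needed); MED = dose with ≥45% total activity.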

SMILES	minimal effective dose [mg/kg]	AD	AG	AN	AP	AX	CE	HL	MS	PS	SH	UK	AD (3 mg/kg)	UK (3 mg/kg)	MED [mpk]
CCc1csc2c1CC(NC)CC2 (centres unmarked) [Compound 207, 3-ethyl-N-methyl-4,5,6,7-tetrahydrobenzothiophen-5-amine hydrochloride]	> 3	ND (^ <4%)	ND (^ <4%)	ND (^ <4%)	ND (^ <4%)	ND (^ <4%)	ND (^ <4%)	ND (^ <4%)	ND (^ <4%)	ND (^ <4%)	ND (^ <4%)	+ (≥4%)			
CCc1csc2c1CC(N)CC2 (centres unmarked) [Compound 208, 3-ethyl-4,5,6,7-tetrahydrobenzothiophen-5-amine hydrochloride]	> 3	ND (^ <4%)	ND (^ <4%)	ND (^ <4%)	ND (^ <4%)	ND (^ <4%)	ND (^ <4%)	ND (^ <4%)	ND (^ <4%)	ND (^ <4%)	ND (^ <4%)	+ (≥4%)			
NC1CCc2c(F)csc2C1 (centres unmarked) [Compound 209, 3-fluoro-4,5,6,7-tetrahydrobenzothiophen-6-amine hydrochloride]	< 3	++ (≥24%)	ND (^ <4%)	ND (^ <4%)	+ (≥4%)	+++ (≥49%)	+ (≥4%)	ND (^ <4%)	ND (^ <4%)	ND (^ <4%)	ND (^ <4%)	ND (^ <4%)			
Cc1sc2c(c1F)CC(N)CC2 (centres unmarked) [Compound 214, 3-fluoro-2-methyl-4,5,6,7-tetrahydrobenzothiophen-5-amine hydrochloride]	> 3	ND (^ <4%)	ND (^ <4%)	ND (^ <4%)	ND (^ <4%)	ND (^ <4%)	ND (^ <4%)	ND (^ <4%)	ND (^ <4%)	ND (^ <4%)	ND (^ <4%)	+ (≥4%)			
NC1COc2c(Cl)csc2C1 (centres unmarked) [Compound 215, 3-chloro-6,7-dihydro-5H-thieno[3,2-b]pyran-6-amine hydrochloride]	3	ND (^ <4%)	ND (^ <4%)	ND (^ <4%)	+ (≥4%)	+++ (≥49%)	ND (^ <4%)	ND (^ <4%)	ND (^ <4%)	ND (^ <4%)	ND (^ <4%)	ND (^ <4%)			
NC1CCc2sc(Cl)cc2C1 (centres unmarked) [Compound 216, 2-chloro-4,5,6,7-tetrahydrobenzothiophen-5-amine hydrochloride]	> 3	ND (^ <4%)	ND (^ <4%)	ND (^ <4%)	ND (^ <4%)	++ (≥24%)	ND (^ <4%)	ND (^ <4%)	ND (^ <4%)	ND (^ <4%)	ND (^ <4%)	+ (≥4%)			
NC1CCc2c(Cl)csc2C1 (centres unmarked) [Compound 217, 3-chloro-4,5,6,7-tetrahydrobenzothiophen-6-amine hydrochloride]	< 3	ND (^ <4%)	ND (^ <4%)	ND (^ <4%)	+ (≥4%)	++ (≥24%)	ND (^ <4%)	+ (≥4%)	ND (^ <4%)	++ (≥24%)	ND (^ <4%)	+ (≥4%)			
NC1CCc2sc(Cl)c(Cl)c2C1 (centres unmarked) [Compound 219, 2,3-dichloro-4,5,6,7-tetrahydrobenzothiophen-5-amine hydrochloride]	> 3	ND (^ <4%)	ND (^ <4%)	ND (^ <4%)	ND (^ <4%)	ND (^ <4%)	ND (^ <4%)	ND (^ <4%)	ND (^ <4%)	ND (^ <4%)	ND (^ <4%)	++ (≥24%)			
CNC1CCc2sc(Cl)c(Cl)c2C1 (centres unmarked) [Compound 220, 2,3-dichloro-N-methyl-4,5,6,7-tetrahydrobenzothiophen-5-amine hydrochloride]	> 3	ND (^ <4%)	ND (^ <4%)	ND (^ <4%)	ND (^ <4%)	ND (^ <4%)	ND (^ <4%)	ND (^ <4%)	ND (^ <4%)	ND (^ <4%)	ND (^ <4%)	++ (≥24%)			
NC1COc2c(C(F)(F)F)csc2C1 (centres unmarked) [Compound 221, 3-(trifluoromethyl)-6,7-dihydro-5H-thieno[3,2-b]pyran-6-amine hydrochloride]	3	ND (^ <4%)	ND (^ <4%)	+ (≥4%)	ND (^ <4%)	++ (≥24%)	ND (^ <4%)	+ (≥4%)	ND (^ <4%)	ND (^ <4%)	ND (^ <4%)	++ (≥24%)			
CNC1COc2c(Cl)csc2C1 (centres unmarked) [Compound 222, 3-chloro-N-methyl-6,7-dihydro-5H-thieno[3,2-b]pyran-6-amine hydrochloride]	< 3	ND (^ <4%)	ND (^ <4%)	ND (^ <4%)	++++ (≥74%)	ND (^ <4%)	ND (^ <4%)	ND (^ <4%)	ND (^ <4%)	ND (^ <4%)	ND (^ <4%)	ND (^ <4%)			
CNC1COc2c(F)csc2C1 (centres unmarked) [Compound 225, 3-fluoro-N-methyl-6,7-dihydro-5H-thieno[3,2-b]pyran-6-amine hydrochloride]	< 3	ND (^ <4%)	ND (^ <4%)	ND (^ <4%)	++++ (≥74%)	ND (^ <4%)	ND (^ <4%)	ND (^ <4%)	ND (^ <4%)	ND (^ <4%)	ND (^ <4%)	ND (^ <4%)			
Cc1csc2c1OCC(N)C2 (centres unmarked) [Compound 228, 3-methyl-6,7-dihydro-5H-thieno[3,2-b]pyran-6-amine hydrochloride]	1	ND (^ <4%)	ND (^ <4%)	ND (^ <4%)	ND (^ <4%)	ND (^ <4%)	ND (^ <4%)	ND (^ <4%)	ND (^ <4%)	ND (^ <4%)	ND (^ <4%)	ND (^ <4%)			
NC1COc2c(C3CC3)csc2C1 (centres unmarked) [Compound 229, 3-cyclopropyl-6,7-dihydro-5H-thieno[3,2-b]pyran-6-amine hydrochloride]	3		ND (^ <4%)	ND (^ <4%)	ND (^ <4%)	++++ (≥74%)	ND (^ <4%)	+ (≥4%)	ND (^ <4%)	ND (^ <4%)	ND (^ <4%)	ND (^ <4%)			
CNC1COc2sccc2C1 (centres unmarked) [Compound 234, N-methyl-3,4-dihydro-2H-thieno[2,3-b]pyran-3-amine hydrochloride]	1	ND (^ <4%)	ND (^ <4%)	ND (^ <4%)	++++ (≥74%)	+ (≥4%)	ND (^ <4%)	ND (^ <4%)	ND (^ <4%)	ND (^ <4%)	ND (^ <4%)	ND (^ <4%)			
CNC1COc2c(C3CC3)csc2C1 (centres unmarked) [Compound 235, 3-cyclopropyl-N-methyl-6,7-dihydro-5H-thieno[3,2-b]pyran-6-amine hydrochloride]	3	++++ (≥74%)	ND (^ <4%)	ND (^ <4%)	ND (^ <4%)	ND (^ <4%)	ND (^ <4%)	ND (^ <4%)	ND (^ <4%)	ND (^ <4%)	ND (^ <4%)	ND (^ <4%)			
CNC1(C)COc2c(C)csc2C1.Cl (centres unmarked) [Compound 239, N, 3,6-trimethyl-6,7-dihydro-5H-thieno[3,2-b]pyran-6-amine hydroachloride]			ND (^ <4%)	ND (^ <4%)	ND (^ <4%)	ND (^ <4%)	ND (^ <4%)	ND (^ <4%)	ND (^ <4%)	ND (^ <4%)	ND (^ <4%)		ND (^ <4%)	++ (≥24%)	>3
CNC1(C)COc2c(C)csc2C1.Cl (centres unmarked) [Compound 240, N, 3,6-trimethyl-6,7-dihydro-5H-thieno[3,2-b]pyran-6-amine hydroachloride]			ND (^ <4%)	ND (^ <4%)	ND (^ <4%)	ND (^ <4%)	ND (^ <4%)	ND (^ <4%)	ND (^ <4%)	ND (^ <4%)	ND (^ <4%)		+ (≥4%)	+++ (≥49%)	3
